In US20240043435A1, “TYK-2 INHIBITOR” (BEIGENE, LTD., priority 2020, published 2024):
pIC50, pKd: −log10 of the molar value.

molecular target: T1, TYK2-JH2 (aa 575-869, in-house) protein (Homo sapiens, UniProt P29597); experiment: TYK2-JH2 biochemical assay (HTRF probe displacement); type: binding; settings: Biochemical assay; read-out: TYK2-JH2 IC50
T1 construct: TYK2-JH2 (aa 575-869, in-house) protein; made in house
Experimental: Assay A: TYK2-JH2 Biochemical Assay
Compounds disclosed herein were tested for blocking of TYK2-JH2 (aa 575-869, in-house) protein with its probe in an assay based on Homogeneous Time Resolved Fluorescence. Compound dilution is done according to the following protocol: (1) Prepare 500× compounds solution in DMSO from 500 uM by 5-fold dilution, total 10 doses were included; (2) Prepare 10× compounds solution in an assay buffer containing 20 mM HEPES, pH 7.5, 10 mM MgCl2, 0.005% BSA, 2 mM DTT, 0.015% Brij-35 by transferring 1 μl serial 500× stock solution into 49 μl assay buffer. […] of 0.2 nM recombinant TYK2-JH2 protein was pre-incubated with 1 μl of 10× serial dilution of compounds at room temperature for 0.5 hour. […] The HTRF signals (ex337 nm, em620 nm/665 nm) were read on BMG PHERAstar FS instrument. The inhibition percentage of TYK2 interaction with its probe in presence of increasing concentrations of compounds was calculated based on the ratio of fluorescence at 615 nm to that at 665 nm. The IC50 for each compound was derived from fitting the data to the four-parameter logistic equation by Dotmatics.

T1 sequence (P29597 575-869): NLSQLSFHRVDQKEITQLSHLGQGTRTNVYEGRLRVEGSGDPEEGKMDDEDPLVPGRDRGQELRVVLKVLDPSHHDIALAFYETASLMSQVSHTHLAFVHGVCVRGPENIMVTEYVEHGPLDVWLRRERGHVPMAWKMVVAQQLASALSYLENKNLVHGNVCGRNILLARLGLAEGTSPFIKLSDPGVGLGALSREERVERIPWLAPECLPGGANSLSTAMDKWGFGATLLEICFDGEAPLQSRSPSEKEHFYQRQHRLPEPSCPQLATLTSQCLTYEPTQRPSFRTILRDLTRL

**Q.** How did the pIC50 turn out when `CC(=O)Nc1cc(Nc2cc(O[C@H]3C[C@H](O)C3)cc(S(C)(=O)=O)c2)c(-c2ccc(C(F)(F)F)cn2)cn1` [Example F5, N-(4′-((3-((trans)-3-hydroxycyclobutoxy)-5-(methylsulfonyl)phenyl)amino)-5-(trifluoromethyl)-[2,3′-bipyridin]-6′-yl)acetamide] was run?
**A.** 10.21

**Q.** `CC(=O)Nc1cc(Nc2cc(C(C)(C)O)cc(S(C)(=O)=O)n2)c(-c2ccc3c(n2)OC(C)(C)CO3)cn1` [Example Q29, N-(5-(3,3-dimethyl-2,3-dihydro-[1,4]dioxino[2,3-b]yridine-6-yl)-4-((4-(2-hydroxypropan-2-yl)-6-(methylsulfonyl)pyridine-2-yl)amino)pyridine-2-yl)acetamide] was tested. Which pIC50 did it give?
**A.** 10.43

**Q.** `CC(=O)Nc1cc(Nc2cc(C#N)cc(S(C)(=O)=O)c2)c(-c2ccc(C(F)(F)F)cn2)cn1` [Example F4, N-(4′-((3-cyano-5-(methylsulfonyl)phenyl)amino)-5-(trifluoromethyl)-[2,3′-bipyridin]-6′-yl)acetamide] was tested. Which pIC50 did it give?
**A.** 9.49

**Q.** How did the pIC50 turn out when `COCCOc1cc(Nc2cc(NC(C)=O)ncc2-c2ccc(F)cn2)nc(S(C)(=O)=O)c1` [Example F16, N-(5-fluoro-4′-((4-(2-methoxyethoxy)-6-(methylsulfonyl)pyridin-2-yl)amino)-[2,3′-bipyridin]-6′-yl)acetamide] was run?
**A.** 10.57

**Q.** How did the pIC50 turn out when `CCOc1cc(Nc2cc(NC(C)=O)ncc2-c2ccc(C(F)(F)F)cn2)nc(S(C)(=O)=O)c1` [Example F10, N-(4′-((4-ethoxy-6-(methylsulfonyl)pyridin-2-yl)amino)-5-(trifluoromethyl)-[2,3′-bipyridin]-6′-yl)acetamide] was run?
**A.** 10.40

**Q.** With `CC(=O)Nc1cc(Nc2cc(-c3c(C)noc3C)cc(S(C)(=O)=O)n2)c(-c2ccc3c(n2)OCC(C)(C)O3)cn1` [Example Q99, N-(5-(2,2-dimethyl-2,3-dihydro-[1,4]dioxino[2,3-b]pyridin-6-yl)-4-((4-(3,5-dimethylisoxazol-4-yl)-6-(methylsulfonyl)pyridin-2-yl)amino)pyridin-2-yl)acetamide] as the compound, how does the pIC50 read?
**A.** 10.48

**Q.** How did the pIC50 turn out when `CC(=O)Nc1cc(Nc2cc(N3CC[C@@H](OCCO)C3)cc(S(C)(=O)=O)n2)c(-c2ccc3c(n2)OCC(C)(C)O3)cn1` [Example Q59, (R)-N-(5-(2,2-dimethyl-2,3-dihydro-[1,4]dioxino[2,3-b]pyridin-6-yl)-4-((4-(3-(2-hydroxyethoxy)pyrrolidin-1-yl)-6-(methylsulfonyl)pyridin-2-yl)amino)pyridin-2-yl) acetamide] was run?
**A.** 10.48

**Q.** With `CC(=O)Nc1cc(Nc2cccc(S(C)(=O)=O)n2)c(-c2cccnc2)cn1` [Example B2, N-(4-((6-(methylsulfonyl)pyridin-2-yl)amino)-[3,3′-bipyridin]-6-yl)acetamide] as the compound, how does the pIC50 read?
**A.** 8.24

**Q.** With `CC(=O)Nc1cc(Nc2cc(C)cc(S(C)(=O)=O)c2)c(-c2ccc(C(F)(F)F)cn2)cn1` [Example F3, N-(4′-((3-methyl-5-(methylsulfonyl)phenyl)amino)-5-(trifluoromethyl)-[2,3′-bipyridin]-6′-yl)acetamide] as the compound, how does the pIC50 read?
**A.** 10.17

**Q.** `CC(=O)Nc1cc(Nc2cc(N3CCC(C)(O)C3)cc(S(C)(=O)=O)n2)c(-c2ccc3c(n2)OCC(C)(C)O3)cn1` (centres unmarked) [Example Q57, N-(5-(2,2-dimethyl-2,3-dihydro-[1,4]dioxino[2,3-b]pyridin-6-yl)-4-((4-(3-hydroxy-3-methylpyrrolidin-1-yl)-6-(methylsulfonyl)pyridin-2-yl)amino)pyridin-2-yl) acetamide] was tested. Which pIC50 did it give?
**A.** 10.51

**Q.** How did the pIC50 turn out when `CC(=O)Nc1cc(Nc2cc(C(F)(F)F)cc(S(C)(=O)=O)c2)c(-c2ccc(F)cn2)cn1` [Example F13, N-(5-fluoro-4′-((3-(methylsulfonyl)-5-(trifluoromethyl)phenyl)amino)-[2,3′-bipyridin]-6′-yl)acetamide] was run?
**A.** 9.68

**Q.** `CC(=O)Nc1cc(Nc2cc(C(F)(F)F)cc(S(C)(=O)=O)c2)c(-c2ccn(C)n2)cn1` [Example J33, N-(5-(1-methyl-1H-pyrazol-3-yl)-4-((3-(methylsulfonyl)-5-(trifluoromethyl)phenyl)amino)pyridin-2-yl)acetamide] was tested. Which pIC50 did it give?
**A.** 9.92

**Q.** `CC(=O)Nc1cc(Nc2cc(OC(C)C)cc(S(C)(=O)=O)n2)c(-c2ccc3nccn3n2)cn1` [Example Q5, N-(5-(imidazo[1,2-b]pyridazin-6-yl)-4-((4-isopropoxy-6-(methylsulfonyl)pyridin-2-yl)amino)pyridin-2-yl)acetamide] was tested. Which pIC50 did it give?
**A.** 10.19

**Q.** `CC(=O)Nc1cc(Nc2cc(C)c(F)c(S(C)(=O)=O)n2)c(-c2ccc3c(n2)OC(C)(C)CO3)cn1` [Example Q30, N-(5-(3,3-dimethyl-2,3-dihydro-[1,4]dioxino[2,3-b]pyridine-6-yl)-4-((5-fluoro-4-methyl-6-(methylsulfonyl)pyridine-2-yl)amino)pyridine-2-yl)acetamide] was tested. Which pIC50 did it give?
**A.** 10.19

**Q.** With `CC(=O)Nc1cc(Nc2cc(C3CCOCC3)cc(S(C)(=O)=O)n2)c(-c2ccc3c(n2)OCC(C)(C)O3)nn1` [Example Q58, N-(6-(2,2-dimethyl-2,3-dihydro-[1,4]dioxino[2,3-b]pyridin-6-yl)-5-((6-(methylsulfonyl)-4-(tetrahydro-2H-pyran-4-yl)pyridin-2-yl)amino)pyridazin-3-yl)acetamide] as the compound, how does the pIC50 read?
**A.** 10.01

**Q.** With `CC(=O)Nc1cc(Nc2cc(O[C@H]3C[C@H](O)C3)cc(S(C)(=O)=O)c2)c(-c2ccc(F)cn2)cn1` [Example F15, N-(5-fluoro-4′-((3-((trans)-3-hydroxycyclobutoxy)-5-(methylsulfonyl)phenyl)amino)-[2,3′-bipyridin]-6′-yl)acetamide] as the compound, how does the pIC50 read?
**A.** 10.14

**Q.** `CC(=O)Nc1cc(Nc2cc(C3CCN(CC(F)(F)F)CC3)cc(S(C)(=O)=O)n2)c(-c2ccc3c(n2)OCC(C)(C)O3)cn1` [Example Q60, N-(5-(2,2-dimethyl-2,3-dihydro-[1,4]dioxino[2,3-b]pyridin-6-yl)-4-((6-(methylsulfonyl)-4-(1-(2,2,2-trifluoroethyl)piperidin-4-yl)pyridin-2-yl)amino)pyridin-2-yl) acetamide] was tested. Which pIC50 did it give?
**A.** 10.23

**Q.** How did the pIC50 turn out when `CC(=O)Nc1cc(Nc2cc(N3CCCC3)cc(S(C)(=O)=O)n2)c(-c2ccc3c(n2)OCC(C)(C)O3)cn1` [Example Q104, N-(5-(2,2-dimethyl-2,3-dihydro-[1,4]dioxino[2,3-b]pyridin-6-yl)-4-((6-(methylsulfonyl)-4-(pyrrolidin-1-yl)pyridin-2-yl)amino)pyridin-2-yl)acetamide] was run?
**A.** 10.54

**Q.** How did the pIC50 turn out when `CC(=O)Nc1cc(Nc2cc(C3(C#N)CC3)cc(S(C)(=O)=O)n2)c(-c2ccc3c(n2)OCC(C)(C)O3)cn1` [Example Q120, N-(4-((4-(1-cyanocyclopropyl)-6-(methylsulfonyl)pyridin-2-yl)amino)-5-(2,2-dimethyl-2,3-dihydro-[1,4]dioxino[2,3-b]pyridin-6-yl)pyridin-2-yl)acetamide] was run?
**A.** 10.49

**Q.** `CC(=O)Nc1cc(Nc2cc(OCCO)cc(S(C)(=O)=O)c2)c(-c2ccc(C(F)(F)F)cn2)cn1` [Example F7, N-(4′-((3-(2-hydroxyethoxy)-5-(methylsulfonyl)phenyl)amino)-5-(trifluoromethyl)-[2,3′-bipyridin]-6′-yl)acetamide] was tested. Which pIC50 did it give?
**A.** 10.07

**Q.** How did the pIC50 turn out when `CC(=O)Nc1cc(Nc2cc(OC(C)C)cc(S(C)(=O)=O)n2)c(-n2ccnc2)cn1` [Example A18, N-(5-(1H-imidazol-1-yl)-4-((4-isopropoxy-6-(methylsulfonyl)pyridin-2-yl)amino)pyridin-2-yl)acetamide] was run?
**A.** 8.09

**Q.** `CC(=O)Nc1cc(Nc2cc(N3CCC(C)(O)CC3)cc(S(C)(=O)=O)n2)c(-c2ccc3c(n2)OCC(C)(C)O3)cn1` [Example Q55, N-(5-(2,2-dimethyl-2,3-dihydro-[1,4]dioxino[2,3-b]pyridin-6-yl)-4-((4-(4-hydroxy-4-methylpiperidin-1-yl)-6-(methylsulfonyl)pyridin-2-yl)amino)pyridin-2-yl)acetamide] was tested. Which pIC50 did it give?
**A.** 10.72

**Q.** How did the pIC50 turn out when `CCn1ccc(-c2cnc(NC(C)=O)cc2Nc2cc(OCC3CC3)cc(S(C)(=O)=O)c2)n1` [Example M16, N-(4-((3-(cyclopropylmethoxy)-5-(methylsulfonyl)phenyl)amino)-5-(1-ethyl-1H-pyrazol-3-yl)pyridin-2-yl)acetamide] was run?
**A.** 10.32

**Q.** How did the pIC50 turn out when `CC(=O)Nc1cc(Nc2cccc(S(C)(=O)=O)c2)c(-c2cc(C(C)(C)O)ccn2)cn1` [Example B9, N-(4-(2-hydroxypropan-2-yl)-4′-((3-(methylsulfonyl)phenyl)amino)-[2,3′-bipyridin]-6′-yl)acetamide] was run?
**A.** 9.28

**Q.** With `CC(=O)Nc1cc(Nc2ccc(C3CCOCC3)c(S(C)(=O)=O)n2)c(-c2ccc3c(n2)OCC(C)(C)O3)cn1` [Example Q79, N-(5-(2,2-dimethyl-2,3-dihydro-[1,4]dioxino[2,3-b]pyridin-6-yl)-4-((6-(methylsulfonyl)-5-(tetrahydro-2H-pyran-4-yl)pyridin-2-yl)amino)pyridin-2-yl)acetamide] as the compound, how does the pIC50 read?
**A.** 9.49

same assay, conditions: in-house probe of the TYK2-JH2 assay

**Q.** How did the pKd turn out when `Cc1cc(C)cc(Nc2cc(NCCNC(=O)CCOCCOCCOCCOCCOCCOCCNC(=O)CCCC[C@@H]3SC[C@@H]4NC(=O)N[C@@H]43)c3ncc(C(N)=O)n3n2)c1` [Probe 1, 6-((3,5-dimethylphenyl)amino)-8-((4,26-dioxo-30-((3aS,4S,6aR)-2-oxohexahydro-1H-thieno[3,4-d]imidazol-4-yl)-7,10,13,16,19,22-hexaoxa-3,25-diazatriacontyl)amino)imidazo[1,2-b]pyridazine-3-carboxamide, reference compound] was run?
**A.** 8.00
